Measured values taken from US20040157818A1, “Cxcr4-antagonistic drugs composed of nitrogen-containing compound” (priority 2001, published 2004).

What follows are compounds tested against T1, CXCR4 (Homo sapiens, UniProt P61073) (assay: CXCR4-binding inhibition activity (125I-SDF-1α binding to MT-4 cells)). Details: 0.1 μM test material, ligand 125I-SDF-1α, 2 hours under ice cold condition.
T1 construct: endogenous in cells; host or cells: MT-4 cells
Procedure: CXCR4-Binding Inhibition Activity
MT-4 cells (5×10^6/0.2 ml/well) were cultured on a 24-well microtiter plate. After the cells were incubated for 24 hours at 37° C. in a carbon dioxide gas incubator, a culture mediumwas replaced with a buffer solution (RPMI-1640 containing 0.1% BSA). Together with a ligand ^125I-SDF-1α (specific activity: 2,2000 Ci/mmol; DAIICHI PURE CHEMICALS CO. ,LTD. (Tokyo)), various concentrations of test materials were subjected to a binding reaction for 2 hours under ice cold condition.

T1 sequence (P61073 whole entry): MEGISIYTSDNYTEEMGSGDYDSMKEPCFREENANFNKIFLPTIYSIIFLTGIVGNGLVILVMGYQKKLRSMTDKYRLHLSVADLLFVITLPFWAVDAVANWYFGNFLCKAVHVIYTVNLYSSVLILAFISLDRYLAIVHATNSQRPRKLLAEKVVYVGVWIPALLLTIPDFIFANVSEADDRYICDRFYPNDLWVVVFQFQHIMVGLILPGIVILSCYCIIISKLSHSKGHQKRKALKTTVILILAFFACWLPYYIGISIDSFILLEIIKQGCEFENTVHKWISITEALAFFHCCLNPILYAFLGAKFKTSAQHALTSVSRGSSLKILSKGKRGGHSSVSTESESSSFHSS

| Structure (SMILES) | inhibition rate (binding-inhibition % at 0.1 μM) [%] |
| --- | --- |
| O=C(N[C@@H](CCCNCc1ccccn1)C(=O)NCc1cccc2ccccc12)c1ccc(CNCc2ccccn2)c2ccccc12 [Compound No. 27, (S)-2-(4-(N-2-picolylaminomethyl)naphthoylamino)-5-(2-picolylamino)valerate 1-naphthalenemethylamide] | 82.1 |
| O=C(N[C@@H](CCCNC1CCCc2cccnc21)C(=O)NCc1cccc2ccccc12)c1ccc(CNC2CCCc3cccnc32)c2ccccc12 (stereo partly drawn) [Compound No. 26, (2S)-2-(4-(5,6,7,8-tetrahydroquinolin-8-ylaminomethyl)naphthoyl)amino-5-(5,6,7,8-tetrahydroquinolin-8-ylamino)valerate 1-naphthalenemethylamide] | 78.6 |
| O=C(N[C@@H](CCCNC1CCCc2cccnc21)C(=O)NCCc1c[nH]c2ccccc12)c1ccc(CNCc2ncc[nH]2)c2ccccc12 (stereo partly drawn) [Compound No. 19, (2S)-2-(4-((N-imidazol-2-ylmethyl)aminomethyl)naphthoylamino)-5-(5,6,7,8-tetrahydroquinolin-8-ylamino)2-(3-indolyl)ethylamide valerate] | 73.8 |
| O=C(N[C@@H](CCCNCc1ccccn1)C(=O)NCc1cccc2ccccc12)c1ccc(CNCc2ncc[nH]2)c2ccccc12 [Compound No. 40, (S)-2-(4-((N-imidazol-2-ylmethyl)aminomethyl)naphthoylamino)-5-(2-picolylamino)valerate 1-naphthalenemethylamide] | 85.3 |
| N=C(N)NCCC[C@H](NC(=O)c1ccc(CNCc2ncc[nH]2)c2ccccc12)C(=O)NCc1cccc2ccccc12 [Compound No. 45, N^α-(4-((N-imidazol-2-ylmethyl)aminomethyl)naphthoyl)-L-arginine 1-naphthalenemethylamide] | 95.8 |
| Cn1cccc1CNCCC[C@H](NC(=O)c1ccc(CNCc2nccn2C)cc1)C(=O)NCc1cccc2ccccc12 [Compound No. 30, (S)-2-(4-((1-methylimidazol-2-ylmethyl)aminomethyl)benzoylamino)-5-((1-methylpyrrol-2-ylmethyl)amino)valerate 1-naphthalenemethylamide] | 60.9 |
| O=C(N[C@@H](CCCNCc1ncc[nH]1)C(=O)NCc1cccc2ccccc12)c1ccc(CNCc2ncc[nH]2)c2ccccc12 [Compound No. 28, (S)-2-(4-((imidazol-2-ylmethyl)aminomethyl)naphthoylamino)-5-((imidazol-2-ylmethyl)amino)valerate 1-naphthalenemethylamide] | 78.1 |
| Cn1ccnc1CNCCC[C@H](NC(=O)c1ccc(CNCc2nccn2C)c2ccccc12)C(=O)NCc1cccc2ccccc12 [Compound No. 29, (S)-2-(4-((1-methylimidazol-2-ylmethyl)aminomethyl)naphthoylamino)-5-((1-methylimidazol-2-ylmethyl)amino)valerate 1-naphthalenemethylamide] | 56.8 |
| Cn1cccc1CNCCC[C@H](NC(=O)c1ccc(CNCc2ccccn2)cc1)C(=O)NCc1cccc2ccccc12 [Compound No. 5, (S)-2-(4-(N-2-picolylaminomethyl)benzoylamino)-5-((1-methylpyrrol-2-ylmethyl)amino)valerate 1-naphthalenemethylamide] | 26.4 |

Results, then the compound that gave them:

| inhibition rate (binding-inhibition % at 0.1 μM) [%] | Structure (SMILES) |
| --- | --- |
| 94.0 | C[C@H](NC(=O)[C@H](CCCNC1CCCc2cccnc21)NC(=O)c1ccc(CNCc2ccccn2)cc1)c1cccc2ccccc12 (stereo partly drawn) [Compound No. 91, (2S)-2-(4-(N-2-picolylaminomethyl)benzoyl)amino-5-(5,6,7,8-tetrahydroquinolin-8-yl)amino valerate(1′S)-1′-(1-naphthyl)ethylamide] |
| 51.6 | O=C(N[C@@H](CCCNC1CCCc2cccnc21)C(=O)NCc1cccc2ccccc12)c1ccc(CNC2CCCc3cccnc32)cc1 (stereo partly drawn) [Compound No. 64, (2S)-2-(4-((5,6,7,8-tetrahydroquinolin-8-yl)aminomethyl)benzoylamino)-5-((5,6,7,8-tetrahydroquinolin-8-yl)amino)valerate 1-naphthalenemethylamide] |
| 86.0 | C[C@@H](NC(=O)[C@H](CCCNC1CCCc2cccnc21)NC(=O)c1ccc(CNCc2ncc[nH]2)c2ccccc12)c1cccc2ccccc12 (some centres unmarked) [Compound No. 59] |
| 52.0 | C[C@@H](NC(=O)[C@H](CCCNCc1ccccn1)NC(=O)c1ccc(CNCc2ncc[nH]2)c2ccccc12)c1cccc2ccccc12 [Compound No. 58] |
| 94.6 | O=C(N[C@@H](CCCN[C@@H]1CCCc2cccnc21)C(=O)NCc1cccc2ccccc12)c1ccc(CNCc2ccccn2)c2ccccc12 [Compound No. 55, (2S)-2-(4-(N-2-picolylaminomethyl)naphthoylamino)-5-((8R)-5,6,7,8-tetrahydroquinolin-8-ylamino)valerate 1-naphthalenemethylamide] |
| 71.5 | N=C(N)NCCC[C@H](NC(=O)c1ccc(CNCc2ncc[nH]2)cc1)C(=O)NCc1cccc2ccccc12 [Compound No. 53, N^α-(4-((imidazol-2-ylmethyl)aminomethyl)benzoyl)-L-arginine 1-naphthalenemethylamide] |
| 75.7 | C[C@H](NC(=O)[C@H](CCCNC1=NCCN1)NC(=O)c1ccc(CNCc2ncc[nH]2)cc1)c1cccc2ccccc12 [Compound No. 110, (S)-2-(4-((N-imidazol-2-ylmethyl)aminomethyl)benzoyl)amino-5-(4,5-dihydroimidazol-2-yl)amino valerate(1′S)-1′-(1-naphthyl)ethylamide] |
| 91.9 | O=C(N[C@@H](CCCN[C@H]1CCCc2cccnc21)C(=O)NCc1cccc2ccccc12)c1ccc(CNCc2ccccn2)c2ccccc12 [Compound No. 105, (2S)-2-(4-(N-2-picolylaminomethyl)naphthalene-1-carbonyl)amino-5-((8S)-5,6,7,8-tetrahydroquinolin-8-yl)amino valerate 1-naphthylmethylamide] |
| 40.6 | O=C(N[C@@H](CCCNC1CCCc2cccnc21)C(=O)NCc1cccc2ccccc12)c1ccc(CNc2ccccn2)c2ccccc12 (stereo partly drawn) [Compound No. 104, (2S)-2-(4-(2-pyridyl)aminomethylnaphthalene-1-carbonyl)anmino-5-(5,6,7,8-tetrahydroquinolin-8-yl)amino valerate 1-naphthylmethylamide] |
| 84.2 | C[C@H](NC(=O)[C@H](CCCNC1=NCCCN1)NC(=O)c1ccc(CNCc2ncc[nH]2)cc1)c1cccc2ccccc12 [Compound No. 112, (S)-2-(4-((N-imidazol-2-ylmethyl)aminomethyl)benzoyl)amino-5-(3,4,5,6-tetrahydropyrimidin-2-yl)amino valerate(1′S)-1′-(1-naphthyl)ethylamide] |
| 57.9 | C[C@H](NC(=O)[C@H](CCCNCc1nccn1C)NC(=O)c1ccc(CNCc2nccn2C)c2ccccc12)c1cccc2ccccc12 [Compound No. 87] |
